Here are results for 87 compounds from PubChem BioAssay AID1324 (NMMLSC, 2008).

The structures appear in SMILES notation. The source made the active and inactive calls. The rule behind the calls is not given here.

Broadly, the EC50 is the concentration needed to bring the measured effect to its halfway point.

In the first assay the target is glutathione S-transferase (GST-GSH binding). In words: GST–glutathione interaction disruption – biochemical, multiplex beads, flow cytometry, HPSMTB buffer, profiling panel (AID 1324).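 Note: glutathione beads loaded with GST-green fluorescent protein and no fluorescent Bim peptide.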 Conditions: multiplex bead flow cytometry, MCF. (In flow cytometry, cells or beads pass a laser one at a time.)
Consider `COc1ccc(OC)c(-n2c(=O)c3ccccc3c3ccccc3c2=O)c1`, for which the EC50 entry is “inactive”.

For `Cc1ccc(Nc2nc(-c3c(C)nc4ncccn34)cs2)cc1`, the EC50 entry was “inactive”.

On to `CN(/N=C/c1ccncc1)C1=NS(=O)(=O)c2ccccc21`, for which the half-maximal effective concentration (EC50) was 3160 nM.

As for `CN1CCN(c2ccc(N)cc2)CC1`, the EC50 result was “inactive”.

For the compound `CN1CCN(C2=C(Cl)C(=O)C(c3cnc(N4CCCCC4)s3)=C(Cl)C2=O)CC1`, the EC50 was 220 nM.

The assay is the same for the next values; noted with them: multiplex bead flow cytometry, MCF, active compounds read high, concentration not given here.
Turning to `Cc1cc(N/C(=N/S(=O)(=O)c2cc(F)ccc2F)c2ccccc2)n(-c2ccccc2)n1`, the percent span inhibition entry is “inactive”.

`CC1(C(=O)N(CC(=O)NC2CCCC2)Cc2ccco2)CC(=O)N=C2C=CC=CN21` (configuration not stated): the percent span inhibition result was “inactive”.

As to `c1ccc(-c2nc(N3CCCCC3)nc3ccccc23)cc1`, the percent span inhibition entry was “inactive”.

For the compound `Cc1ccc(N=c2ssnc2Cl)cc1`, the percent span inhibition result is “inactive”.

As to `CC(=O)c1ccc(NC(=O)c2ccc3nc(-c4ccco4)c(-c4ccco4)nc3c2)cc1`, the percent span inhibition result was “inactive”.

As to `COC(=O)c1c(C(=O)OC)c2cccc3cc(-c4ccccc4)c4ccc1c4n32`, the percent span inhibition result is “inactive”.

With `Cc1noc(C)c1COc1ccc(C(=O)Nc2cccnc2)cc1`, the percent span inhibition entry is “inactive”.

`O=C(NNC(=O)C12CC3CC(CC(C3)C1)C2)c1ccco1`: the percent span inhibition result is “inactive”.

On to `COc1ccc(C2C(C#N)=C(C)NC3=C2S(=O)(=O)c2ccccc23)cc1` (configuration not stated), for which the percent span inhibition entry was “inactive”.

As for `CCOC(=O)c1ccc(NC(=O)CSCCC(=O)O)cc1`, the percent span inhibition result is “inactive”.

Turning to `O=C1CSc2ccc(C(=O)Nc3cccc(S(=O)(=O)Nc4ccc(Br)cc4)c3)cc2N1`, the percent span inhibition result is “inactive”.

On to `Cc1ccc(NC2=C(Cl)C(=O)c3ccccc3C2=O)cc1`, for which the percent span inhibition result is “inactive”.

For `CC(CCc1ccccc1)NC(=O)C1CCN(S(=O)(=O)N2CCCCC2)CC1` (configuration not stated), the percent span inhibition result was “inactive”.

Turning to `Cn1c(N)c(C(=O)COC(=O)c2cncc(Br)c2)c(=O)n(C)c1=O`, the percent span inhibition entry was “inactive”.

`O=C(NCC1CCCO1)c1ccc2c(=O)n(-c3ccc(F)cc3)c(=S)[nH]c2c1` (configuration not stated): the percent span inhibition result was “inactive”.

`Cc1ccc(C)c(NC(=O)C(=O)NCc2ccccn2)c1`: the percent span inhibition result is “inactive”.

`C=CCSc1nc(N)c2c(C)c(C)sc2n1`: the percent span inhibition entry was “inactive”.

As to `Cc1c(NC2=C(Cl)C(=O)N(c3ccccc3)C2=O)c(=O)n(-c2ccccc2)n1C`, the percent span inhibition entry is “inactive”.

On to `O=C(CCc1ccccc1)N1CCN(c2ccccn2)CC1`, for which the percent span inhibition result was “inactive”.

Take `N#CC(C#N)=C1C=CC=CN1/C(=C\c1ccco1)C(=O)c1ccccc1`: the percent span inhibition result is “inactive”.

As to `COC(=O)CCC(=O)Nc1sc(C)c(C)c1C(N)=O`, the percent span inhibition entry was “inactive”.

For the compound `Cc1cccc(C(=O)N2CCC(c3nc(-c4ccc(S(=O)(=O)N5CCOCC5)cc4)no3)CC2)c1`, the percent span inhibition result was “inactive”.

Take `O=C(C1CCC(Cn2c(=S)[nH]c3ccccc3c2=O)CC1)N1CCN(c2ccccn2)CC1` (configuration not stated): the percent span inhibition entry is “inactive”.

Take `CCCCN(C(=O)CCC(=O)Nc1cc(C)on1)C(C(=O)NC(C)(C)C)c1cccc(OC)c1OC` (configuration not stated): the percent span inhibition entry was “inactive”.

As for `CCN(CC)c1ccc(NC(=O)c2ccc(=O)[nH]c2)cc1S(=O)(=O)Nc1ccccc1OC`, the percent span inhibition entry is “inactive”.

For the compound `N/C(=N\N=C/c1ccc(Br)cc1)N/N=C\c1ccc(Br)cc1`, the percent span inhibition entry was “inactive”.

With `CC(C)C(=O)NC(c1ccccc1)c1cc([N+](=O)[O-])c2cccnc2c1O` (configuration not stated), the percent span inhibition result was “inactive”.

For `COC(=O)c1ccc(/C=N/NC(=O)CC(=O)NCc2cccnc2)cc1`, the percent span inhibition entry is “inactive”.

Consider `CC(C)CCN1CCN(Cc2cccc3cccnc23)CC1CCO` (configuration not stated), for which the percent span inhibition entry was “inactive”.

On to `COc1cccc2c(SCC(=O)N/N=C/c3ccccc3)cc(C)nc12`, for which the percent span inhibition result was “inactive”.

Consider `CC(C)(C)OC(=O)N1CCN(C(=O)[C@H](Cc2ccc(O)cc2)n2cc(CCO)nn2)CC1`, for which the percent span inhibition entry was “inactive”.

As to `COc1cc(N=c2ssnc2Cl)cc(OC)c1`, the percent span inhibition entry is “inactive”.

On to `Cc1ccc(C)c(N2CCN(C(=S)Nc3ccc4nc(N5CCN(C)CC5)cc(C)c4c3)CC2)c1`, for which the percent span inhibition result is “inactive”.

In the case of `CCOc1ccccc1-n1c(=O)c2ccccc2c2ccccc2c1=O`, the percent span inhibition result was “inactive”.

Consider `COc1ccc(N2C(=O)C(Cl)=C(Nc3ccccc3O)C2=O)cc1`, for which the percent span inhibition result is “inactive”.

With `CNC(=O)CC1C(=O)N(Cc2ccccc2)C(=S)N1NC(=O)c1cccc(F)c1` (configuration not stated), the percent span inhibition result was “inactive”.

Take `CC(=O)NC(=O)Nc1sc(=S)n(C)c1C`: the percent span inhibition result is “inactive”.

Consider `CSc1nnc2ccc(-c3cccs3)nn12`, for which the percent span inhibition result was “inactive”.

`Fc1cccc(Nc2nc(-c3ccncc3)nc3ccccc23)c1`: the percent span inhibition result was “inactive”.

As for `O=C(NC1=C(NC2CCS(=O)(=O)C2)C(=O)c2ccccc2C1=O)c1ccccc1` (configuration not stated), the percent span inhibition entry was “inactive”.

With `CNc1ccc(Br)cc(C(=O)/C=C/c2cccc(OC)c2OC)c1=O`, the percent span inhibition result was “inactive”.

On to `COc1ccc(C(=O)Nc2ccc(C(=O)OCC(=O)c3cccc4ccccc34)cc2)cc1`, for which the percent span inhibition entry is “inactive”.

In the case of `CCOCCCn1c(N)c(C(=O)Nc2sc3c(c2C(=O)OC)CCCC3)c2nc3ccccc3nc21`, the percent span inhibition entry is “inactive”.

As for `COc1ccc(N2C(=O)C(Cl)=C(Oc3cccc(OC)c3)C2=O)cc1`, the percent span inhibition result was “inactive”.

`Cc1cc2nc(/C(C#N)=C/c3ccncc3)[nH]c2cc1C`: the percent span inhibition result was “inactive”.

Regarding `COCCNC(=S)Nc1cc(OC)c(OC)cc1C#N`, the percent span inhibition result is “inactive”.

Consider `COc1ccc(/C=C/C(=O)c2cc(Br)ccc(=O)c2O)cc1`, for which the percent span inhibition entry was “inactive”.

Regarding `O=C1c2ccccc2C(=O)N1CN(C(=O)COc1ccc(Cl)cc1Cl)c1cccc(F)c1`, the percent span inhibition result is “inactive”.

Turning to `Cc1ccc(C2=N/C(=C/c3cccs3)C(=O)N2Nc2ccccc2)cc1`, the percent span inhibition result is “inactive”.

For `COc1cc(N=c2ssnc2Cl)c(OC)cc1Cl`, the percent span inhibition result is “inactive”.

With `CCC(/C=C1\Sc2ccc(OC)cc2N1CCO)=C\c1sc2ccc(OC)cc2[n+]1CCO`, the percent span inhibition entry was “inactive”.

As to `Cc1cc(Cl)ccc1N=c1ssnc1Cl`, the percent span inhibition result is “inactive”.

Consider `CCOC(=O)c1cc2c(=O)n3cccc(C)c3nc2n(Cc2ccco2)c1=NC(=O)c1ccccc1`, for which the percent span inhibition entry was “inactive”.

Regarding `CCOC(=O)c1nc(Nc2ccc(N3CCC(C)CC3)cc2)c2ccccc2n1`, the percent span inhibition entry is “inactive”.

With `CCNCc1cc(Br)c(OCC(=O)Nc2ccccc2)c(OC)c1`, the percent span inhibition entry was “inactive”.

For `NC(=O)c1c(NC(=O)C2CCCO2)sc2c1CCCCC2` (configuration not stated), the percent span inhibition result is “inactive”.

For `Cc1cc(C)n(CC(=O)N/N=C/c2cccc([N+](=O)[O-])c2)n1`, the percent span inhibition entry was “inactive”.

On to `Cc1ccc(SCCC(=O)Nc2ccc(Br)c(C)c2)cc1`, for which the percent span inhibition entry is “inactive”.

Regarding `COc1ccccc1-n1c(SCC(=O)N2CCc3ccccc32)nc2c(c1=O)SCC2`, the percent span inhibition entry was “inactive”.

As to `CCN(CC)c1ccc(NC(=O)COc2ccccc2C#N)cc1S(=O)(=O)Nc1ccccc1OC`, the percent span inhibition result is “inactive”.

As to `Cc1cc(C)nc(/N=C(\N)N2CCc3ccccc32)n1`, the percent span inhibition entry was “inactive”.

As for `CC1(C)SC(=S)N(NC(=O)Nc2ccccc2)C1N(O)C(=O)Nc1cccc2ccccc12` (configuration not stated), the percent span inhibition entry is “inactive”.

Take `CC1N(C)c2cccc3cccc(c23)N1C`: the percent span inhibition entry is “inactive”.

In the case of `CCOC(=O)CSC1=NC(=O)/C(=C/c2ccc(OC)cc2)S1`, the percent span inhibition result is “inactive”.

With `O=C(CCCN1C(=O)c2cccc3cccc(c23)C1=O)N1CCN(c2ccccn2)CC1`, the percent span inhibition entry was “inactive”.

`CN(CCc1ccccn1)C(=O)CCC1CCCN(C(=O)NC2CCCCC2)C1` (configuration not stated): the percent span inhibition result was “inactive”.

As to `O=C(/C=C\c1ccc(-c2ccccc2)o1)c1ccccc1`, the percent span inhibition result was “inactive”.

With `COc1ccc(OC)c(-n2c(-c3ccc(C)cc3)n[nH]c2=S)c1`, the percent span inhibition result is “inactive”.

For `Cc1cc(-c2cc(-c3ccc(Cl)cc3)nc(N)c2C#N)co1`, the percent span inhibition entry is “inactive”.

For the compound `Cc1cc2nn(-c3cccc4ccccc34)nc2cc1N`, the percent span inhibition result was “inactive”.

Consider `Nc1c(C(=O)NCC2CCCO2)sc2nc3c(c(-c4ccco4)c12)CC/C3=C\c1ccco1` (configuration not stated), for which the percent span inhibition result is “inactive”.

Consider `CCOc1ccc(N2C(=O)C(Cl)=C(Nc3ccccc3O)C2=O)cc1`, for which the percent span inhibition entry was “inactive”.

As to `CCCc1nnc2n1N=C(c1ccc(-c3cc(Cl)ccc3Cl)o1)CS2`, the percent span inhibition entry is “inactive”.

For `Cn1c(CNc2nc(-c3ccccc3)cs2)nnc1SCC(=O)N1CCc2ccccc21`, the percent span inhibition result is “inactive”.

In the case of `Cn1cccc1CC(=O)N/N=C\c1ccccc1`, the percent span inhibition entry was “inactive”.

Turning to `COc1ccc(CCNC(=O)c2ccc3nc(-c4ccco4)c(-c4ccco4)nc3c2)cc1OC`, the percent span inhibition entry is “inactive”.

As for `CC(C)c1ccc(C2CC(c3ccc(Br)cc3)=NN2C(N)=S)cc1` (configuration not stated), the percent span inhibition entry was “inactive”.

Regarding `Cc1ccc(C(NC(=O)C(C)C)c2cc([N+](=O)[O-])c3cccnc3c2O)cc1` (configuration not stated), the percent span inhibition result is “inactive”.

As to `COc1ccc(CCNC(=O)c2cc(-c3ccccn3)nc3c(Cl)cccc23)cc1OC`, the percent span inhibition entry is “inactive”.

For `O=C(CCl)Nc1cccc2ncccc12`, the percent span inhibition result is “inactive”.

Turning to `O=C(Nc1cccc(-c2ccc3nncn3n2)c1)c1ccco1`, the percent span inhibition entry is “inactive”.

Turning to `O=S1(=O)N=C(N(CCO)/N=C/C=C/c2ccccc2)c2ccccc21`, the percent span inhibition result was “inactive”.
